Experimental data from patent publication US7691858B2, “Kinase inhibitors and methods of use thereof” (TargeGen, Inc., priority 2006, dated 2010).
Entries after “also recorded” stand apart in the source; their conditions may differ.

Legend:
VEGF-induced edema = test: Miles assay, VEGF as agonist; assay type: in vivo, Sprague-Dawley rats
Method: A rodent model of vascular edema, the Miles assay, was used to screen compounds for their ability to inhibit VEGF-induced edema. […] Sprague-Dawley rats were first injected IV with vehicle alone or test agent, followed by IV injection of Evans blue dye, followed by intradermal injections of saline and VEGF (200 ng/injection site) along both shaved flanks.

Akt phosphorylation = test: VEGF-induced Akt phosphorylation in vivo (lung lysates, Western blot); parameters: species or system Sprague Dawley rats; conditions: 0.5 and 5 mg/kg iv, VEGF 30, 60 or 120 min later
Method: FIG. 5. Inhibition of VEGF-induced Akt phosphorylation in vivo. […] Lungs were explanted 5 min after VEGF or saline injection, processed to tissue lysates, and lysates probed in Western blots to detect either phosphorylated Akt or total Akt (as a loading control).
The ability of compounds to impact PI3K activity in vivo was assessed by examining compound influence on vascular endothelial growth factor (VEGF)-induced Akt kinase phosphorylation (VEGF stimulation being an inducer of PI3K activity, and Akt kinase being a direct target of PI3K). Sprague Dawley rats were first injected intravenously (iv) with either vehicle or test compound at 5 mg/kg, and then 30, 60 or 120 min later injected iv with VEGF. Five minutes later, lungs were harvested and used to generate tissue lysates, which were then probed for phosphorylated Akt using Western blot technology; non-phosphorylated Akt was also probed in the same blots as a loading control. In other studies, test compounds was dosed at either 0.5 or 5 mg/kg, and VEGF delivered 60 min later, in order to assess the dose-response relationship of a compound's activities. […]

MAPKAP-K2 = target: T1, MAPKAP-K2 (Homo sapiens, UniProt P49137); test: Kinase panel screen; assay type: biochemical; conditions: Compound I and ATP 10 μM
T1 construct: purchased Upstate USA or Invitrogen (commercial screening service)
T1 sequence (P49137 whole entry): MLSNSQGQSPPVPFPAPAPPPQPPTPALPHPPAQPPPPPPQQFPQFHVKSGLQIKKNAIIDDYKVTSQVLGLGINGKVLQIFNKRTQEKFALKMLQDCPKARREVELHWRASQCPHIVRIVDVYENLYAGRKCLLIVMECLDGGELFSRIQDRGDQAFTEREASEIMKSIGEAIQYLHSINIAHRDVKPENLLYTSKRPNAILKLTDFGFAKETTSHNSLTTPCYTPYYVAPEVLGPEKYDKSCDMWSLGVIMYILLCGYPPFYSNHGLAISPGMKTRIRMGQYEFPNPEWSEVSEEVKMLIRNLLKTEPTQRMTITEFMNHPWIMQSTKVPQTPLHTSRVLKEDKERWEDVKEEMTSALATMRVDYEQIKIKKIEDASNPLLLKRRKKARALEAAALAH

EphA4 = target: T2, EphA4 (Homo sapiens, UniProt P54764); test: Kinase panel screen; assay type: biochemical; conditions: Compound I and ATP 10 μM
T2 construct: purchased Upstate USA or Invitrogen (commercial screening service)

Met = target: T3, Met (Homo sapiens, UniProt P08581); test: Kinase panel screen; assay type: biochemical; conditions: Compound I and ATP 10 μM
T3 construct: purchased Upstate USA or Invitrogen (contract screening service)

PKD2 = target: T4, PKD2 (Homo sapiens, UniProt Q9BZL6); test: Kinase panel screen; assay type: biochemical; conditions: Compound I and ATP 10 μM
T4 construct: purchased Upstate USA or Invitrogen (contract screening service)
T4 sequence (Q9BZL6 whole entry): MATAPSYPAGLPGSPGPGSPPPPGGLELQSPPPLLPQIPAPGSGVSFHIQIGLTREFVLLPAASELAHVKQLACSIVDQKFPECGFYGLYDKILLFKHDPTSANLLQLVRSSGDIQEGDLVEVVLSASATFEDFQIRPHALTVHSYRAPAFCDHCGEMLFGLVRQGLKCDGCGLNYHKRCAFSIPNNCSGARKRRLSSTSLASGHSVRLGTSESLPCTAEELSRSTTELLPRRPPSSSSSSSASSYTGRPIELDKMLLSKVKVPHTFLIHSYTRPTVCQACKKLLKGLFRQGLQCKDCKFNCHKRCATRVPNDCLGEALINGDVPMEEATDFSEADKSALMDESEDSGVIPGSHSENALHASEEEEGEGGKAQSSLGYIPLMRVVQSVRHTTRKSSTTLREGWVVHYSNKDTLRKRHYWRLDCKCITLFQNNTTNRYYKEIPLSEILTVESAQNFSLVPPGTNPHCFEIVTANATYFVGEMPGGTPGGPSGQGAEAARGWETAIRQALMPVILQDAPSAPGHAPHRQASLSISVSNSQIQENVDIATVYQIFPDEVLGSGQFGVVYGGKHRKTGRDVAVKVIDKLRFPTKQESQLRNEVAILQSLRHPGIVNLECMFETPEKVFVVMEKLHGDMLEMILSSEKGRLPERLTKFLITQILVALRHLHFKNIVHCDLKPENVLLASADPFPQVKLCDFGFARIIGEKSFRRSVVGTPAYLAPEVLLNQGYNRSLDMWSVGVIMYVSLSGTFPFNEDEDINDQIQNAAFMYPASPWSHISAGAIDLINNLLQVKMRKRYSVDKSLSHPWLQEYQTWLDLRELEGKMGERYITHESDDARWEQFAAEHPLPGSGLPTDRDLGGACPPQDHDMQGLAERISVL

FGFR3 = target: T5, FGFR3 (Homo sapiens, UniProt P22607); test: Kinase panel screen; assay type: biochemical; conditions: Compound I and ATP 10 μM
T5 construct: purchased Upstate USA or Invitrogen (contract screening service)

Aurora-A = target: T6, Aurora-A (Homo sapiens, UniProt O14965); test: Kinase panel screen; assay type: biochemical; conditions: Compound I and ATP 10 μM
T6 construct: purchased Upstate USA or Invitrogen (contract screening service)

MSK1 = target: T7, MSK1 (Homo sapiens, UniProt O75582); test: Kinase panel screen; assay type: biochemical; conditions: Compound I and ATP 10 μM
T7 construct: purchased Upstate USA or Invitrogen (contract screening service)
T7 sequence (O75582 whole entry): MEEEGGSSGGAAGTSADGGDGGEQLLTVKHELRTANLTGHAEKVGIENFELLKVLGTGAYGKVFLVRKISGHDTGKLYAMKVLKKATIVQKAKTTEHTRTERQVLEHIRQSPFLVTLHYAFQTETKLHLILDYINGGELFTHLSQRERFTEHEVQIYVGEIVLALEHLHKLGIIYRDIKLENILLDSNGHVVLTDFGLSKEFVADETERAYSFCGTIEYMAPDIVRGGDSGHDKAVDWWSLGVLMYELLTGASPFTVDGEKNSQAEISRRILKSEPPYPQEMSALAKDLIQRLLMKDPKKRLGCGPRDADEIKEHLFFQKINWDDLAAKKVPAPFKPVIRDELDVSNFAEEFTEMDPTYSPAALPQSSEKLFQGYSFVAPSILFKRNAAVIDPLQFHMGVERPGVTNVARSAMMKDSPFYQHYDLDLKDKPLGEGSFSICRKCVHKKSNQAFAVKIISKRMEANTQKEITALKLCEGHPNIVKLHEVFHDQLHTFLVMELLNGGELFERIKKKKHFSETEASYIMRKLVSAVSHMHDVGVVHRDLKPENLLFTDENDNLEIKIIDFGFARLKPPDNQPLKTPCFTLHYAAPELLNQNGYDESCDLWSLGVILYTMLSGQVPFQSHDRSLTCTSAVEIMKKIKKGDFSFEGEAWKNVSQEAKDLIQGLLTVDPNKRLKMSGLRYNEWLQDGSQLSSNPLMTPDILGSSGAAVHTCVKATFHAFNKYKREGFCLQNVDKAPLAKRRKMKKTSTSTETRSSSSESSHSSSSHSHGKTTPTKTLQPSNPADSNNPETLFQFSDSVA

Ret = target: T8, Ret (Homo sapiens, UniProt P07949); test: Kinase panel screen; assay type: biochemical; conditions: Compound I and ATP 10 μM
T8 construct: purchased Upstate USA or Invitrogen (contract screening service)

MSK2 = target: T9, MSK2 (Homo sapiens, UniProt O75676); test: Kinase panel screen; assay type: biochemical; conditions: Compound I and ATP 10 μM
T9 construct: purchased Upstate USA or Invitrogen (contract screening service)
T9 sequence (O75676 whole entry): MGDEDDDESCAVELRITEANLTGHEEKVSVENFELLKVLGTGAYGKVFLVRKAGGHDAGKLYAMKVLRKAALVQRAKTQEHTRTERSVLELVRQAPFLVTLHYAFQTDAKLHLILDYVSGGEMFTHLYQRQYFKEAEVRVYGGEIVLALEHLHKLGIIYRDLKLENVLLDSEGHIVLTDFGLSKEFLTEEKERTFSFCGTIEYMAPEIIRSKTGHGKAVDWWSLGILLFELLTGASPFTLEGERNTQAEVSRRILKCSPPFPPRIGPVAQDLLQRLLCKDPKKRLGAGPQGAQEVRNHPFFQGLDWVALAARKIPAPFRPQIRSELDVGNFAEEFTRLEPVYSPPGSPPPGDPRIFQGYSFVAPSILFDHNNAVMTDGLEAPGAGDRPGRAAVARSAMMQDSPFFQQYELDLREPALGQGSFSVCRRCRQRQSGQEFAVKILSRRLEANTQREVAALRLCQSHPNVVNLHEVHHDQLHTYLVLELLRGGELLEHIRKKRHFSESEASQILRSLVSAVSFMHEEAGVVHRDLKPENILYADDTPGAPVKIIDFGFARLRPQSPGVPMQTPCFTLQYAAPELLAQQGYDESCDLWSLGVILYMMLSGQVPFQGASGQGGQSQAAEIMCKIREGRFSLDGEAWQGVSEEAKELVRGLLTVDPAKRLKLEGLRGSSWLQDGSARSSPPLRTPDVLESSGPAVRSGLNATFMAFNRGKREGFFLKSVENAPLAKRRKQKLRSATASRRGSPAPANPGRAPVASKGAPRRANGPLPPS

Blk = target: T10, Blk (Mus musculus, UniProt P16277); test: Kinase panel screen; assay type: biochemical; conditions: Compound I and ATP 10 μM
T10 construct: purchased Upstate USA or Invitrogen (commercial screening service)

MST1 = target: T11, MST1 (Homo sapiens, UniProt Q13043); test: Kinase panel screen; assay type: biochemical; conditions: Compound I and ATP 10 μM
T11 construct: purchased Upstate USA or Invitrogen (commercial screening service)

Bmx = target: T12, Bmx (Homo sapiens, UniProt P51813); test: Kinase panel screen; assay type: biochemical; conditions: Compound I and ATP 10 μM
T12 construct: purchased Upstate USA or Invitrogen (commercial screening service)

MST2 = target: T13, MST2 (Homo sapiens, UniProt Q13188); test: Kinase panel screen; assay type: biochemical; conditions: Compound I and ATP 10 μM
T13 construct: purchased Upstate USA or Invitrogen (commercial screening service)

NEK6 = target: T14, NEK6 (Homo sapiens, UniProt Q9HC98); test: Kinase panel screen; assay type: biochemical; conditions: Compound I and ATP 10 μM
T14 construct: purchased Upstate USA or Invitrogen (commercial screening service)

Rse = target: T15, Rse (Homo sapiens, UniProt Q06418); test: Kinase panel screen; assay type: biochemical; conditions: Compound I and ATP 10 μM
T15 construct: purchased Upstate USA or Invitrogen (commercial screening service)
T15 sequence (Q06418 41-890): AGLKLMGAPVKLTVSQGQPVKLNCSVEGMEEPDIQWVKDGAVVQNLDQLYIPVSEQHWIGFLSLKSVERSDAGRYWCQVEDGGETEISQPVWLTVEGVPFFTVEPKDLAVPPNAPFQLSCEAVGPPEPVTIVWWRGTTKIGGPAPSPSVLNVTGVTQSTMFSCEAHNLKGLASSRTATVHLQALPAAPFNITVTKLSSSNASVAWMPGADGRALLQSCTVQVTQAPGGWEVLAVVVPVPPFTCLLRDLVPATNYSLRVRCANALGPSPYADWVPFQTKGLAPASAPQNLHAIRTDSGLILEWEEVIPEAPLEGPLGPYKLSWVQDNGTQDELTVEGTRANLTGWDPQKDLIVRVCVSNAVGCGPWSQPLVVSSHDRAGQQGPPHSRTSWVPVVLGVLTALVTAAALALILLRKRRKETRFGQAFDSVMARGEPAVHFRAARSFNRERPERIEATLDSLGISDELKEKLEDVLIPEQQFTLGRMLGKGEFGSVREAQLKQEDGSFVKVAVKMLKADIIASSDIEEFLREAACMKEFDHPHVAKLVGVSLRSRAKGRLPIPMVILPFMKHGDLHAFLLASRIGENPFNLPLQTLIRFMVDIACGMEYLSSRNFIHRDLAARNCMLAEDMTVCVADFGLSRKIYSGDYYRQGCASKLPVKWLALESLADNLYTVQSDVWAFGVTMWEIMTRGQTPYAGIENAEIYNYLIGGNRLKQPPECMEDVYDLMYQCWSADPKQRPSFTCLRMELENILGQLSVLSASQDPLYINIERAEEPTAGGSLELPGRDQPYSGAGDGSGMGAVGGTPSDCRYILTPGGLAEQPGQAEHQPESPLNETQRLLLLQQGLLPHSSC

CaMKII = test: Kinase panel screen; assay type: biochemical, rat; conditions: Compound I and ATP 10 μM
Rsk3 = target: T16, Rsk3 (Homo sapiens, UniProt Q15349); test: Kinase panel screen; assay type: biochemical; conditions: Compound I and ATP 10 μM
T16 construct: purchased Upstate USA or Invitrogen (commercial screening service)
T16 sequence (Q15349 whole entry): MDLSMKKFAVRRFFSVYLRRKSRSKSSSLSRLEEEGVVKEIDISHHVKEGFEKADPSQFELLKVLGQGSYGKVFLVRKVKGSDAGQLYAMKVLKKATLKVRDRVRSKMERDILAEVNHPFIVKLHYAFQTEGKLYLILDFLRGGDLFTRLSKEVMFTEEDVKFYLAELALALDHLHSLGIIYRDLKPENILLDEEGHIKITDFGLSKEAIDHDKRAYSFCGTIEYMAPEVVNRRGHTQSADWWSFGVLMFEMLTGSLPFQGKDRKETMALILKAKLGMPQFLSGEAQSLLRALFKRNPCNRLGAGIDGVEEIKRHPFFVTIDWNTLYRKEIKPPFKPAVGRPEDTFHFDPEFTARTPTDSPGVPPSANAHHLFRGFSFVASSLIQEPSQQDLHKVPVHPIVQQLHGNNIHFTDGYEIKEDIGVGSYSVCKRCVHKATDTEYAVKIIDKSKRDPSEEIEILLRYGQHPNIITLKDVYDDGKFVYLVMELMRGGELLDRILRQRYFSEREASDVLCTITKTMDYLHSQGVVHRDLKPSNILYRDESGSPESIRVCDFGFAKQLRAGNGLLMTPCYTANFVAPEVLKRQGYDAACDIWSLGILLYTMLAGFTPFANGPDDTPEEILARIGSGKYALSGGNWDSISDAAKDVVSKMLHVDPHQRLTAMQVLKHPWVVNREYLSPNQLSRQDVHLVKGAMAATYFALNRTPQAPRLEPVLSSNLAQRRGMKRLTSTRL

IGF-1R = target: T17, IGF-1R (Homo sapiens, UniProt P08069); test: Kinase panel screen; assay type: biochemical; conditions: Compound I and ATP 10 μM
T17 construct: purchased Upstate USA or Invitrogen (commercial screening service)

Syk = target: T18, Syk (Homo sapiens, UniProt P43405); test: Kinase panel screen; assay type: biochemical; conditions: Compound I and ATP 10 μM
T18 construct: purchased Upstate USA or Invitrogen (contract screening service)

JAK3 = target: T19, JAK3 (Homo sapiens, UniProt P52333); test: Kinase panel screen; assay type: biochemical; conditions: Compound I and ATP 10 μM
T19 construct: purchased Upstate USA or Invitrogen (contract screening service)

PKBa = target: T20, PKBa (Homo sapiens, UniProt P31749); test: Kinase panel screen; assay type: biochemical; conditions: read-out: Percent Control, PKBa
T20 construct: purchased Upstate USA or Invitrogen (contract screening service)

Yes = Yes (Homo sapiens, UniProt P07947); test: Kinase panel screen; assay type: biochemical; conditions: Compound I and ATP 10 μM
MAPK3 = target: T21, MAPK3 (Homo sapiens, UniProt P27361); test: Kinase panel screen; assay type: biochemical; conditions: Compound I at 1 μM and ATP at the apparent Km
T21 construct: purchased Upstate USA or Invitrogen (commercial screening service)
T21 sequence (P27361 whole entry): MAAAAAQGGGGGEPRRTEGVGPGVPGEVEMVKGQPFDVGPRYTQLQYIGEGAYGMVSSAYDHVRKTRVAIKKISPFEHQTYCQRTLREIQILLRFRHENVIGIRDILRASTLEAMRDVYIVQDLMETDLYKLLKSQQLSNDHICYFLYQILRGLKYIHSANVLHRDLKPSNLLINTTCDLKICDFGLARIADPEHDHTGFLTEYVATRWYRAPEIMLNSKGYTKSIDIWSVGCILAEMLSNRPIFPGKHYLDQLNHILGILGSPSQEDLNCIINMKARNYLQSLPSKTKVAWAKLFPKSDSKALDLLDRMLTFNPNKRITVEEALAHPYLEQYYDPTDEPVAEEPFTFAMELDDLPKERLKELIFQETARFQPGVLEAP

## Nc1nc(N)c2nc(-c3cccc(O)c3)c(-c3cccc(O)c3)nc2n1 [Compound I, 6,7-bis-(3-hydroxyphenyl)-pteridine-2,4-diamine]
VEGF-induced edema; Miles assay, varied time between compound and agonist challenge, data not shown
  time for which a single i.v. administration reduced edema formation: at least 4 hours
VEGF-induced edema; rats, Compound I pretreatment (1 mg/kg in FIG. 4)
  VEGF-induced vascular permeability / edema formation: inhibited; also recorded: reduced edema formation
Akt phosphorylation
  VEGF-induced Akt phosphorylation in lung lysates: blocked
Akt phosphorylation; listed as 6,7-bis-(3-hydroxyphenyl)-pteridine-2,4-diamine
  VEGF-induced Akt phosphorylation in lung lysates: Inhibition
MAPKAP-K2
  Percent Control, MAPKAP-K2: 107%
EphA4
  Percent Control, EphA4: 119%
Met
  Percent Control, Met: 41%
PKD2
  Percent Control, PKD2: 37%
FGFR3
  Percent Control, FGFR3: 66%
Aurora-A
  Percent Control, Aurora-A: 71%
MSK1
  Percent Control, MSK1: 92%
Ret
  Percent Control, Ret: 57%
MSK2
  Percent Control, MSK2: 100%
Blk
  Percent Control, Blk (m): 57%
MST1
  Percent Control, MST1: 107%
Bmx
  Percent Control, Bmx: 58%
MST2
  Percent Control, MST2: 91%
NEK6
  Percent Control, NEK6: 97%
Rse
  Percent Control, Rse: 93%
CaMKII
  Percent Control, CaMKII (r): 90%
Rsk3
  Percent Control, Rsk3: 90%
IGF-1R
  Percent Control, IGF-1R: 104%
Syk
  Percent Control, Syk: 76%
JAK3
  Percent Control, JAK3: 99%
PKBa
  remaining activity at 10 µM: 62%
Yes
  Percent Control, Yes: 30%
MAPK3
  Percent Control, MAPK3*: 99%
